Experimental findings from publication PMC5674860, “A novel, highly efficient β-glucosidase with a cellulose-binding domain: characterization and properties of native and recombinant proteins” (Biotechnology for Biofuels, 2017) are described below.

Type in all cases: biochemical
Test [1] has as its target T1, BGL-2T* (Talaromyces amestolkiae, UniProt A0A186NAE7).
T1 construct: gene bgl2; recombinant truncated form lacking linker and CBD; stop codon in retained third intron; pPIC9, Pichia pastoris KM71, secreted; monomer
In words: glucose release (Glucose-TR kit), Lineweaver-Burk. The settings on record: 100 mM sodium acetate pH 4, optimal temperature (70 °C), BSA; read-out: K m (mM) / BGL-2T*. The source says: glucose release (Glucose-TR kit), Lineweaver-Burk on BGL-2T*

Test [2] deals with T1, BGL-2T*. The experiment in a line: o-nitrophenol release, Lineweaver-Burk. The settings on record: acetate buffer, optimal pH (3-4) and temperature (70 °C), BSA; read-out: K m (mM) / BGL-2T*. The source says:
o-nitrophenol release, Lineweaver-Burk on BGL-2T*

For test [3], the target named is T1, BGL-2T*. The experiment in a line: p-nitrophenol release at […] nm, Lineweaver-Burk. The conditions noted are these: acetate buffer, optimal pH (3-4) and temperature (70 °C), BSA; read-out: K m (mM) / BGL-2T*.

T1 sequence (A0A186NAE7 1-700 limits assumed): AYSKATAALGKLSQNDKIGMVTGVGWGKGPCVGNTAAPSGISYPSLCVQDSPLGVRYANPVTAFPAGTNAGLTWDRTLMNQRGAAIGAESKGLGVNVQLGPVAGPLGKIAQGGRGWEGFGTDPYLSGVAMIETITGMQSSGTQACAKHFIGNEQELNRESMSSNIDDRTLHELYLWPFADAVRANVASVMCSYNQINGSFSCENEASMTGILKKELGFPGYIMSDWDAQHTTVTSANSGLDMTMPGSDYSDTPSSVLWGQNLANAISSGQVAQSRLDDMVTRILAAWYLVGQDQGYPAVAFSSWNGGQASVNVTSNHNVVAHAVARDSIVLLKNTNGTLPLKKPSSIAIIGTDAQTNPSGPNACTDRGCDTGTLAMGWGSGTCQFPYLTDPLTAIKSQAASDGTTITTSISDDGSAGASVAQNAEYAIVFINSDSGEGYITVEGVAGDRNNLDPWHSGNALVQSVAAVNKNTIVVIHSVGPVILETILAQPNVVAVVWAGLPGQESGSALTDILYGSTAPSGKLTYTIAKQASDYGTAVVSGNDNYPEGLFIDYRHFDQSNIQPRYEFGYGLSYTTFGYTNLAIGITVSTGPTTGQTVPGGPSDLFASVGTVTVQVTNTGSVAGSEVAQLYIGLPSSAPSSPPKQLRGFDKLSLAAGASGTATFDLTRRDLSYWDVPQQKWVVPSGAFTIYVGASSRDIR

As for `OC[C@H]1O[C@@H](O[C@H]2[C@H](O)[C@@H](O)[C@H](O[C@H]3[C@H](O)[C@@H](O)[C@H](O[C@H]4[C@H](O)[C@@H](O)[C@H](O[C@H]5[C@H](O)[C@@H](O)C(O)O[C@@H]5CO)O[C@@H]4CO)O[C@@H]3CO)O[C@@H]2CO)[C@H](O)[C@@H](O)[C@@H]1O` (some centres unmarked) [Cellopentaose], the Km in test [1] was 0.68 ± 0.01 mM.

Consider `OC[C@H]1O[C@@H](O[C@H]2[C@H](O)[C@@H](O)[C@H](O[C@H]3[C@H](O)[C@@H](O)[C@H](O[C@H]4[C@H](O)[C@@H](O)C(O)O[C@@H]4CO)O[C@@H]3CO)O[C@@H]2CO)[C@H](O)[C@@H](O)[C@@H]1O` (some centres unmarked) [Cellotetraose], for which, in test [1], the Km worked out at 0.49 ± 0.03 mM.

With `OC[C@H]1O[C@@H](O[C@H]2[C@H](O)[C@@H](O)[C@H](O[C@H]3[C@H](O)[C@@H](O)C(O)O[C@@H]3CO)O[C@@H]2CO)[C@H](O)[C@@H](O)[C@@H]1O` (some centres unmarked) [Cellotriose], the Km in test [1] was 1.42 ± 0.06 mM.

As to `O=[N+]([O-])c1ccccc1O[C@@H]1O[C@H](CO)[C@@H](O)[C@H](O)[C@H]1O` [oNPG, o-nitrophenyl-β-D-glucopyranoside], in test [2], the Km stood at 0.67 ± 0.04 mM.

Take `O=[N+]([O-])c1ccc(O[C@@H]2O[C@H](CO)[C@@H](O)[C@H](O)[C@H]2O)cc1` [pNPG, p-nitrophenyl-β-D-glucopyranoside]: in test [3], the Km was 0.34 ± 0.02 mM.
